Assays:
[1] = test system: oleic acid-induced HepG2 cell line model; assay: Bodipy staining of lipid accumulation in oleic acid-induced HepG2 cells; format: cell-based; conditions: Homo sapiens, 24 h, OA-induced HepG2, read-out: Inhibitory Rate of lipid accumulation; for inhibition at 100 µg/mL: 100 μg/mL
Protocol: After treatment with compounds for 24 h in a 96-well plate, the supernatant of the HepG2 cells was discarded and cells were washed twice with PBS, then the cells were fixed with 4% paraformaldehyde at room temperature for 20 min. After removing the fixative reagent, the cells were washed twice with PBS. HepG2 cells were stained with 100 μL Bodipy (2 μg/mL, Thermo Fisher Scientific (Waltham, MA, USA)) in the dark at 25 °C for 30 min [30]. The fluorescence was measured using a fluorescence plate reader (Ex = 500 nm, Em = 550 nm, POLARstar, BMG Labtech (Offenburg, Germany)). The inhibition rate was calculated by comparison with the control group which was just treated with DMSO.

[2] = test system: oleic acid-induced HepG2 cell line model; assay: Oil Red O staining of lipid accumulation in oleic acid-induced HepG2 cells; format: cell-based; conditions: Homo sapiens; Oil Red O assay, OA-induced HepG2, 24 h, area of lipid droplets; read-out: IC50 against lipid accumulation
Protocol: HepG2 cells were treated with different concentrations of compounds for 24 h, then were washed twice with PBS and fixed with 4% paraformaldehyde for 15–20 min. The cells were washed with PBS and stained with Oil Red O solution (50 µL per well, Sigma-Aldrich) at 25 °C for 1 h. After washed with PBS for 3–5 times, the lipid droplets and cell morphology were observed by a light microscope and photographed. The area of lipid droplets was statistically compared for IC50 calculation with the control group which was treated with DMSO using Image J software.

[3] = CCK-8 cell viability assay; conditions: human, HepG2 cells
Protocol: Human hepatoma HepG2 cells were obtained from the Beijing Union Medical Cell Resource Center (Basic Medical Cell Center, Institute of Basic Medical Sciences, Chinese Academy of Medical Sciences). The cells were cultured in DMEM containing 10% FBS and 1% penicillin–streptomycin and incubated with 5% CO2 at 37 °C. Cells were allowed to grow to approximately 80% confluency and were sub-cultured at a ratio of 1:3 [27]. In this study, to simulate the process of nonalcoholic fatty liver disease in vitro, 0.2 mM oleic acid (OA) was added to the culture medium for 48 h to induce human HepG2 to establish a nonalcoholic fatty liver cell model [28].
HepG2 cells were seeded into 96-well plates after achieving logarithmic growth and cultured overnight at 37 °C with 5% CO2. After treatment with different concentrations of compounds (dissolved in DMSO) for 24 h, 10 μL CCK-8 solution (Cell Counting Kit-8, Sigma-Aldrich (St. Louis, MO, USA)) was added to each well and the plate was incubated for 2 h in the incubator. Then, the absorbance at 450 nm was measured using a microplate reader. The normal control group was treated with the same amount of DMSO as the experiment group [29]. Cell viability was calculated by: cell viability (%) = (ODdrug/ODcontrol) × 100%.

Structure (SMILES)	inhibition at 100 µg/mL [1]	IC50 [2]	viability at 24 h, 100 μg/mL [3]	inhibition at 25 µg/mL ([1]; 25 μg/mL)	viability at 24 h, 25 μg/mL [3]
C=CC(C)(C)c1[nH]c2c(CC3OC3(C)C)cccc2c1C=C1NC(=O)C(C)NC1=O (centres unmarked) [Compound 1, variecolorin P]	37.3%	0.127 µM	110%	–	–
C=CC(C)(C)c1[nH]c2cc(CC=C(C)C)ccc2c1/C=C1\NC(=O)[C@H](C)NC1=O [Compound 3, neoechinulin D]	-67.3%	–	11.2%	–	–
C=CC(C)(C)c1[nH]c2c(CC=C(C)C)cccc2c1/C=C1\NC(=O)[C@H](C)NC1=O [Compound 4, variecolorin G]	-15.3%	–	–	–	–
C=CC(C)(C)c1[nH]c2c(CC=C(C)C)cc(CC=C(C)C)cc2c1C[C@@H]1NC(=O)[C@H](C)NC1=O [Compound 5, echinulin]	–	–	–	5.46%	94.5%
